Data taken from patent US7763585B2, “Methods for inhibiting tumor cell proliferation” (priority 2003, dated 2010).

Tests used:
[1] = system: Stat3-dependent luciferase reporter (pLucTKS3); experiment: Stat3-dependent firefly luciferase reporter in NIH3T3/v-Src/pLucTKS3; format: cell-based, mouse; details: NIH3T3/v-Src/pLucTKS3, FIG. 4
Experimental: FIGS. 4A-B show inhibition of Stat3-mediated gene expression in intact cells by platinum complexes. v-Src-transformed mouse fibroblasts that stably express Stat3-dependent (NIH3T3/v-Src/pLucTKS3) and Stat3-independent (NIH3T3/v-Src/pRLSRE) luciferase reporters were treated with platinum complexes for the indicated times. Cytosolic extracts were then prepared from cells for Stat3-dependent firefly luciferase activity (FIG. 4A) and Stat3-independent renilla luciferase measurements (FIG. 4B). Values are the means and S.D. of five independent assays. […]
Cytosolic lysates preparation from fibroblasts for luciferase assays or from baculovirus-infected Sf-9 insect cells have been previously described (Turkson et al., 1998; Turkson et al., 2001; Turkson et al., 1999; Zhang et al., 2000). Luciferase assays were performed as outlined in the supplier's (Promega) manual and measured with a luminometer. […]

[2] = system: Src-transformed NIH3T3 fibroblasts; experiment: TUNEL staining for apoptosis, Src-transformed NIH3T3 fibroblasts; format: cell-based, mouse; details: 48 h treatment, FIG. 7
Experimental: FIG. 7 is a photograph showing induction of apoptosis by platinum complexes. Normal NIH3T3 fibroblasts and their v-Src-transformed counterparts were treated with platinum complexes for 48 h and analyzed for evidence of DNA damage using TUNEL staining kit.
(§1) Proliferating cells were counted by phase-contrast microscopy for viable cells (using trypan blue exclusion. TUNEL staining was carried according to supplier's instructions to detect apoptotic cells. Cells (NIH3T3 or NIH3T3/v-Src) were first treated with or without compounds 24-48 h prior to staining.
Studies have established a critical role for constitutive Stat3 signaling in the survival of transformed and tumor cells (Catlett-Falcone et al., 1999a; Grandis et al., 2000a; Epling-Burnette et al., 2001; Bowman et al., 2000b; Grandis et al., 2000b; Horiguchi et al., 2002). Effects of the subject platinum compounds on viability and survival of malignant cells were evaluated. To determine whether inhibition of persistently-active Stat3 by the subject compounds results in apoptosis, Src-transformed and normal mouse fibroblasts were treated with the subject platinum compounds and subjected to TUNEL staining for evidence of apoptosis.

NIH3T3v-Src = experiment: Cell proliferation of v-Src-transformed fibroblasts; format: cell-based, mouse; details: FIG. 6
Experimental: FIGS. 6A and 6B show the effects of platinum complexes on cell proliferation and viability. […] Values are the mean and S.D. of 3-4 independent determinations.
as §1
The effects of platinum complexes on cell proliferation measured by [^3H]-thymidine incorporation were investigated.

Stat3 = experiment: EMSA of nuclear extracts from treated cells with constitutively-activated Stat3; format: cell-based, mouse and human; details: Src-transformed fibroblasts and human tumor cells, FIG. 3
Experimental: FIG. 3 is a photograph showing the evaluation of effects of platinum complexes on Stat3 activation analyzed by EMSA. Nuclear extracts prepared from malignant cells that contain constitutively-activated Stat3 and treated with platinum complexes for the indicated times were analyzed by EMSA using hSIE oligonucleotide probe. Extracts were prepared from v-Src-transformed NIH3T3/v-Src; human breast carcinoma MDA-MB-231; MDA-MB-435; and […]. Position of Stat3:DNA complex in gel is shown.
Nuclear extracts were prepared from cell lines and used for EMSA as previously described (Turkson et al., 1998; Yu et al., 1995; Garcia et al., 1997). In some cases, cells were pre-treated with platinum complexes for the indicated times prior to harvesting. Where cells were stimulated with EGF (6 ng/ml), duration of treatment was 15 min. Nuclear extracts were pre-incubated with compounds for 30 min at room temperature prior to incubation with radiolabeled probe. The ^32P-radiolabeled oligonucleotide probes used are hSIE (high affinity sis-inducible element, m67 variant, 5′-[…]-3′) (SEQ ID NO:1) that binds both Stat1 and Stat3 (Garcia et al., 1997; Wagner et al., 1990), MGFe (mammary gland factor element from the bovine β-casein gene promoter, 5′-[…]-3′) (SEQ ID NO:2) that binds Stat1 and Stat5 (Gouilleux et al., 1995; Seidel et al., 1995), the NF-κB binding oligo (5′-[…]-3′) (SEQ ID NO:3), and the oligonucleotide sequence from the DHFR promoter that binds E2F1.
The effects of platinum complexes on persistent activation of Stat3 in Src-transformed fibroblasts and human tumor cells were investigated. […] These studies were then extended to evaluate the effects of the platinum complexes on Stat3 transcriptional activity.

## O=[N+]([O-])[Pt]1([Cl])([Cl])([Cl])[NH]CC[NH]1 [ISS CPA-1]
[1]
  Stat3-dependent induction of luciferase reporter: significantly suppress
[2]
  Apoptosis (TUNEL staining) in Src-transformed NIH3T3 fibroblasts: strong apoptosis
NIH3T3v-Src
  Growth of Src-transformed mouse fibroblasts ([3H]-thymidine incorporation): strongly inhibited
Stat3
  Inhibition of constitutive Stat3 activation in treated cells (EMSA of nuclear extracts): strong inhibition

## [NH2][Pt]([NH2])([Cl])([Cl])([Cl])[N+](=O)[O-] [ISS CPA-7]
[1]
  Stat3-dependent induction of luciferase reporter: significantly suppress
[2]
  Apoptosis (TUNEL staining) in Src-transformed NIH3T3 fibroblasts: strong apoptosis
NIH3T3v-Src
  Growth of Src-transformed mouse fibroblasts ([3H]-thymidine incorporation): strongly inhibited
Stat3
  Inhibition of constitutive Stat3 activation in treated cells (EMSA of nuclear extracts): strong inhibition
